Experimental data as given in patent US10364245B2 (CHIESI FARMACEUTICI S.p.A., priority 2017, dated 2019).

Tests used:
[1] = system: Peripheral Blood Mononuclear Cells (PBMCs), TNFα release; test: LPS-stimulated PBMC TNFα release assay; assay type: cell-based; settings: human PBMC, LPS (10 ng/ml), 18 h, compound 1 h before LPS; read-out: LPS-stimulated PBMC TNFα release inhibition
Method: LPS-Stimulated PBMC TNFα Release Assay
Peripheral Blood Mononuclear Cells (PBMCs) were isolated from healthy human volunteer blood using a standard density gradient centrifugation technique. Citrated blood was placed onto Histopaque™ and centrifuged. The PBMCs were removed from the density gradient interface and washed in phosphate buffered saline (PBS). The PBMCs were suspended in RPMI 1640 medium (without serum), dispensed into a 96-well plate and incubated at 37° C. for 3 h in a humidified incubator. After incubation, the medium was replaced (with medium containing 1% foetal bovine serum) and the plate incubated at 37° C., for 1 h, in the presence of test compound or the appropriate vehicle. LPS (10 ng/ml), or an appropriate vehicle control, was then added to the cells and the plate returned to the incubator for 18 h. Cell-free supernatants were removed and assayed for TNFα levels using MSD plates on the Sector Imager 6000 (MesoScale).
A dose response curve to each test compound was performed and the effect of compound in each experiment was expressed as a percentage inhibition of the control TNFα release. Dose response curves were plotted and compound potency (IC50) was determined. Compounds were tested in at least three separate experiments.

p38 alpha = target: T1, p38 alpha (Homo sapiens, UniProt Q16539); test: P38 alpha enzyme inhibition assay (Alphascreen kinase activity assay); assay type: biochemical; settings: 100 pM p38 alpha, 2 hours preincubation at 25° C., 250 μM ATP, ATF-2 fusion protein; read-out: p38α inhibition
T1 construct: purchased Invitrogen PV3304
Procedure, shortened: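 Phosphorylation of ATF-2 fusion protein (0.3 μg/ml) read by AlphaScreen with anti-phospho-ATF2 antibody after 1 h kinase reaction at 25 °C, initiated by 250 μM ATP. Compounds first incubated 2 h at 25 °C with 100 pM p38 alpha in pH 7.5 HEPES buffer, 1% DMSO. IC50 derived from concentration-response data.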

T1 sequence (Q16539 whole entry, the tested form may be a part): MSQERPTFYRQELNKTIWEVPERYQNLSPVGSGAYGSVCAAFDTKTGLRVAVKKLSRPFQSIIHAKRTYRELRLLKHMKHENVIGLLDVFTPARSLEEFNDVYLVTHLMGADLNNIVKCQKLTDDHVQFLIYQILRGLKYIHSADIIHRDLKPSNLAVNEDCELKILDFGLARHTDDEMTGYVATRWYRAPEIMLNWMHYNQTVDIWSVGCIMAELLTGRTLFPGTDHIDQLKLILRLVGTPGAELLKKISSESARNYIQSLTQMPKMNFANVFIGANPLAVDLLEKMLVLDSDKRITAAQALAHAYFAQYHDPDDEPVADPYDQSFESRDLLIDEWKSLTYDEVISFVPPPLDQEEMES

Row | IC50 (p38 alpha) | SMILES | IC50 [1]
1 | < 1 nM | CCN(C)CCNC(=O)c1nc(NC(=O)N[C@H]2CC[C@@H](Oc3ccc4nnc(N(CC)CC)n4c3)c3ccccc32)cc(C(C)(C)C)n1 [Example 11, 4-(tert-Butyl)-6-(3-((1S,4R)-4-((3-(diethylamino)-[1,2,4]triazolo[4,3-a]pyridin-6-yl)oxy)-1,2,3,4-tetrahydronaphthalen-1-yl)ureido)-N-(2-(ethyl(methyl)amino)ethyl)pyrimidine-2-carboxamide] | 1 to 5 nM
2 | 1 to 10 nM | COC(C)(C)c1nnc2ccc(O[C@@H]3CC[C@H](NC(=O)Nc4cc(C(C)(C)C)nc(C(=O)NCCN5CCCOCC5)n4)c4ccccc43)cn12 [Example 12, N-(2-(1,4-Oxazepan-4-yl)ethyl)-4-(tert-butyl)-6-(3-((1S,4R)-4-((3-(2-methoxypropan-2-yl)-[1,2,4]triazolo[4,3-a]pyridin-6-yl)oxy)-1,2,3,4-tetrahydronaphthalen-1-yl)ureido)pyrimidine-2-carboxamide] | 1 to 5 nM
3 | < 1 nM | COC(C)(C)c1nnc2ccc(O[C@@H]3CC[C@H](NC(=O)Nc4cc(C(C)(C)C)nc(CO)n4)c4ccccc43)cn12 [Example 13, 1-(6-(tert-Butyl)-2-(hydroxymethyl)pyrimidin-4-yl)-3-((1S,4R)-4-((3-(2-methoxypropan-2-yl)-[1,2,4]triazolo[4,3-a]pyridine-6-yl)oxy)-1,2,3,4-tetrahydronaphthalene-1-yl)urea] | 1 to 5 nM
4 | < 1 nM | CN1CCC[C@@]1(C)c1nnc2ccc(O[C@@H]3CC[C@H](NC(=O)Nc4cc(C(C)(C)C)ncn4)c4ccccc43)cn12 [Example 14, 1-(6-(tert-Butyl)pyrimidin-4-yl)-3-((1S,4R)-4-((3-((S)-1,2-dimethylpyrrolidin-2-yl)-[1,2,4]triazolo[4,3-a]pyridin-6-yl)oxy)-1,2,3,4-tetrahydronaphthalen-1-yl)urea] | < 1 nM
5 | < 1 nM | C[C@H]1CCCCN1c1nnc2ccc(O[C@@H]3CC[C@H](NC(=O)Nc4cc(C(C)(C)C)nc(CN(C)C)n4)c4ccccc43)cn12 [Example 15, 1-(6-(tert-Butyl)-2-((dimethylamino)methyl)pyrimidin-4-yl)-3-((1S,4R)-4-((3-((S)-2-methylpiperidin-1-yl)-[1,2,4]triazolo[4,3-a]pyridin-6-yl)oxy)-1,2,3,4-tetrahydronaphthalen-1-yl)urea] | > 5 nM
6 | < 1 nM | CC(C)(C)c1cc(NC(=O)N[C@H]2CC[C@@H](Oc3ccc4nnc(C(C)(C)C)n4c3)c3ccccc32)nc(C(=O)NCCO)n1 [Example 16, 4-(tert-Butyl)-6-(3-((1S,4R)-4-((3-(tert-butyl)-[1,2,4]triazolo[4,3-a]pyridin-6-yl)oxy)-1,2,3,4-tetrahydronaphthalen-1-yl)ureido)-N-(2-hydroxyethyl)pyrimidine-2-carboxamide] | < 1 nM
7 | < 1 nM | C[C@@H]1CCC[C@H](C)N1c1nnc2ccc(O[C@@H]3CC[C@H](NC(=O)Nc4cc(C(C)(C)C)nc(C(=O)NCCN5CCOCC5)n4)c4ccccc43)cn12 [Example 18, 4-(tert-Butyl)-6-(3-((1S,4R)-4-((3-((2R,6S)-2,6-dimethylpiperidin-1-yl)-[1,2,4]triazolo[4,3-a]pyridin-6-yl)oxy)-1,2,3,4-tetrahydronaphthalen-1-yl)ureido)-N-(2-morpholinoethyl)pyrimidine-2-carboxamide] | 1 to 5 nM
8 | < 1 nM | C[C@@H]1CCC[C@H](C)N1c1nnc2ccc(O[C@@H]3CC[C@H](NC(=O)Nc4cc(C(C)(C)C)nc(C(=O)NCCO)n4)c4ccccc43)cn12 [Example 19, 4-(tert-Butyl)-6-(3-((1S,4R)-4-((3-((2R,6S)-2,6-dimethylpiperidin-1-yl)-[1,2,4]triazolo[4,3-a]pyridin-6-yl)oxy)-1,2,3,4-tetrahydronaphthalen-1-yl)ureido)-N-(2-hydroxyethyl)pyrimidine-2-carboxamide] | < 1 nM
9 | < 1 nM | C[C@@H]1CCC[C@H](C)N1c1nnc2ccc(O[C@@H]3CC[C@H](NC(=O)Nc4cc(C(C)(C)C)nc(C(=O)NCCN(C)C)n4)c4ccccc43)cn12 [Example 20, 4-(tert-Butyl)-N-(2-(dimethylamino)ethyl)-6-(3-((1S,4R)-4-((3-((2R,6S)-2,6-dimethylpiperidin-1-yl)-[1,2,4]triazolo[4,3-a]pyridin-6-yl)oxy)-1,2,3,4-tetrahydronaphthalen-1-yl)ureido)pyrimidine-2-carboxamide] | 1 to 5 nM
10 | 1 to 10 nM | CC(C)(C)c1cc(NC(=O)N[C@H]2CC[C@@H](Oc3ccc4nnc(C(C)(C)C)n4c3)c3ccccc32)nc(CN2CCOCC2)n1 [Example 21, 1-(6-(tert-Butyl)-2-(morpholinomethyl)pyrimidin-4-yl)-3-((1S,4R)-4-((3-(tert-butyl)-[1,2,4]triazolo[4,3-a]pyridin-6-yl)oxy)-1,2,3,4-tetrahydronaphthalen-1-yl)urea] | > 5 nM
11 | 1 to 10 nM | CN1CCN(C(C)(C)c2nnc3ccc(O[C@@H]4CC[C@H](NC(=O)Nc5cc(C(C)(C)C)nc(CO)n5)c5ccccc54)cn23)CC1 [Example 23, 1-(6-(tert-Butyl)-2-(hydroxymethyl)pyrimidin-4-yl)-3-((1S,4R)-4-((3-(2-(4-methylpiperazin-1-yl)propan-2-yl)-[1,2,4]triazolo[4,3-a]pyridin-6-yl)oxy)-1,2,3,4-tetrahydronaphthalen-1-yl)urea] | > 5 nM
12 | < 1 nM | CN(C)CC(=O)NCc1nc(NC(=O)N[C@H]2CC[C@@H](Oc3ccc4nnc(C(C)(C)C)n4c3)c3ccccc32)cc(C(C)(C)C)n1 [Example 24, N-((4-(tert-Butyl)-6-(3-((1S,4R)-4-((3-(tert-butyl)-[1,2,4]triazolo[4,3-a]pyridin-6-yl)oxy)-1,2,3,4-tetrahydronaphthalen-1-yl)ureido)pyrimidin-2-yl)methyl)-2-(dimethylamino)acetamide] | > 5 nM
13 | < 1 nM | CC(C)(C)c1cc(NC(=O)N[C@H]2CC[C@@H](Oc3ccc4nnc(C5(C)CCCC5)n4c3)c3ccccc32)nc(C(=O)NCCN2CCOCC2)n1 [Example 25, 4-(tert-Butyl)-6-(3-((1S,4R)-4-((3-(1-methylcyclopentyl)-[1,2,4]triazolo[4,3-a]pyridin-6-yl)oxy)-1,2,3,4-tetrahydronaphthalen-1-yl)ureido)-N-(2-morpholinoethyl)pyrimidine-2-carboxamide] | < 1 nM
14 | 1 to 10 nM | CC(=O)OCc1nc(NC(=O)N[C@H]2CC[C@@H](Oc3ccc4nnc([C@]5(C)CCCN5C)n4c3)c3ccccc32)cc(C(C)(C)C)n1 [Example 26, (4-(tert-Butyl)-6-(3-((1S,4R)-4-((3-((S)-1,2-dimethylpyrrolidin-2-yl)-[1,2,4]triazolo[4,3-a]pyridin-6-yl)oxy)-1,2,3,4-tetrahydronaphthalen-1-yl)ureido)pyrimidin-2-yl)methyl acetate] | 1 to 5 nM
15 | < 1 nM | CN1CCC[C@@]1(C)c1nnc2ccc(O[C@@H]3CC[C@H](NC(=O)Nc4cc(C(C)(C)C)nc(CO)n4)c4ccccc43)cn12 [Example 27, 1-(6-(tert-Butyl)-2-(hydroxymethyl)pyrimidin-4-yl)-3-((1S,4R)-4-((3-((S)-1,2-dimethylpyrrolidin-2-yl)-[1,2,4]triazolo[4,3-a]pyridin-6-yl)oxy)-1,2,3,4-tetrahydronaphthalen-1-yl)urea] | < 1 nM
